One experiment has as its target T1, hα2A receptor (Homo sapiens, UniProt P08913).
T1 construct: expressed in transfected cells; host or cells: CHO cells, stably transfected; membrane preparation
T1 sequence (P08913 1-465): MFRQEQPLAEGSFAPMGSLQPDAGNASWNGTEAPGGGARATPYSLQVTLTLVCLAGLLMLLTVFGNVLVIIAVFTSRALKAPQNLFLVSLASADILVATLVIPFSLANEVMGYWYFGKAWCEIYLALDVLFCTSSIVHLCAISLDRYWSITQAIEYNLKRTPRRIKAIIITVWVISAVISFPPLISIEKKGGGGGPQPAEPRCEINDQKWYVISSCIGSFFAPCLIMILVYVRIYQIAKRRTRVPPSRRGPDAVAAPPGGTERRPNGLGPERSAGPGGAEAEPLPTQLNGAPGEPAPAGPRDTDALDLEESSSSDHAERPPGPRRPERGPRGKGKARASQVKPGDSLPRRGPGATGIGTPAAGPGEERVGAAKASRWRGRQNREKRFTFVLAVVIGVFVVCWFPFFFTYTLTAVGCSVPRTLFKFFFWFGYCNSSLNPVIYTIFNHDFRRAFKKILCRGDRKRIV
As to the kind of experiment: Radioligand binding experiment for α2A-adrenoceptor ([3H]raulwolscine, CHO cell membranes). To be noted: [3H]raulwolscine binding; for IC50: read-out: h-α2A pIC50 (converted).

In a further experiment the target is T2, hα2C receptor (Homo sapiens, UniProt P18825).
T2 construct: expressed in transfected cells; host or cells: CHO cells, stably transfected; membrane preparation
T2 sequence (P18825 1-462): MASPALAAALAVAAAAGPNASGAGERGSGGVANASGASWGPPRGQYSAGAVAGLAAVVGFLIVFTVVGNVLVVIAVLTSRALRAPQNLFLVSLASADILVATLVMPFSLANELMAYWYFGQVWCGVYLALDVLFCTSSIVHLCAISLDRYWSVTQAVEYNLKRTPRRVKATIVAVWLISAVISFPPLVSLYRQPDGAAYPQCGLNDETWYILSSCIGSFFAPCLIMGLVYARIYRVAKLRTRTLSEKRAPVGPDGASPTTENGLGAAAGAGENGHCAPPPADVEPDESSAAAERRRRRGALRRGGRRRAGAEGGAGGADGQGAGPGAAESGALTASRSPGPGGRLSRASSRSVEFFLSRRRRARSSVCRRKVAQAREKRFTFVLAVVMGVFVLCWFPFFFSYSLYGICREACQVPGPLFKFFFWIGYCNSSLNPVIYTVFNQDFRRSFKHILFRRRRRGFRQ
As to the kind of experiment: Radioligand binding experiment for α2C-adrenoceptor ([3H]raulwolscine, CHO cell membranes). Conditions: [3H]raulwolscine binding; for IC50: read-out: h-α2C pIC50 (converted).

Another experiment concerns the target T3, 5HT-Transporter (Homo sapiens, UniProt P31645).
T3 construct: Human platelet membranes (Oceanix Biosciences Corporation, Hanover, Md., USA) were thawed; tissue Oceanix Biosciences Corporation, Hanover, Md., USA; host or cells: human platelet membranes
As to the kind of experiment: Binding experiment for the 5HT-transporter ([3H]paroxetine, human platelet membranes). To be noted: [3H]paroxetine 0.5 nM; for IC50: read-out: h-5HTT pIC50 (converted). In a few lines:
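Competition binding of [3H]paroxetine to human platelet membranes in Tris-HCl 50 mM, 120 mM NaCl, 5 mM KCl, with filtration and scintillation counting.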

Each structure is given as a SMILES string.

T3 sequence (P31645 whole entry): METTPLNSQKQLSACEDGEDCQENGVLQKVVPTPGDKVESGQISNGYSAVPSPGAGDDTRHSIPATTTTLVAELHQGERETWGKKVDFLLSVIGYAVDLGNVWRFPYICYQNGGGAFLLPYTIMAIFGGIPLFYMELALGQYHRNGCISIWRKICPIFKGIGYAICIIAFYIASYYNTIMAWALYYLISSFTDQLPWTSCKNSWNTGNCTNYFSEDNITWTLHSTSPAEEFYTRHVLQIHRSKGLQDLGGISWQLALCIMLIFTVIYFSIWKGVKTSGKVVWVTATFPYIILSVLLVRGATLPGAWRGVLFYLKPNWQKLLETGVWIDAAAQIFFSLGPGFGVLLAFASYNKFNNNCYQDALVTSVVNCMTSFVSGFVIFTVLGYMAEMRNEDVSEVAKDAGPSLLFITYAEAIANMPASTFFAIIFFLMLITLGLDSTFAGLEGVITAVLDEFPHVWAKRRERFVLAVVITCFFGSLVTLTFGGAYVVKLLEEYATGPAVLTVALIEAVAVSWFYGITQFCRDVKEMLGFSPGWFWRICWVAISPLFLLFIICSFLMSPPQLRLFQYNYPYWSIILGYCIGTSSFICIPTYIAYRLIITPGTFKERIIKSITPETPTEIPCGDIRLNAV

Consider `C/C(=C\c1ccccc1)CN1CCC(Nc2nccn(CCn3cccc3)c2=O)CC1` [2-47], for which the IC50 at hα2A receptor was 0.2 µM; on hα2C receptor, 0.0316 µM; at 5HT-Transporter, 3.98 µM.

For the compound `C/C(=C\c1ccccc1)CN1CCN(c2nccn(CC3CCCCC3)c2=O)CC1` [14-3], the IC50 is 0.398 µM on hα2A receptor, 0.158 µM at hα2C receptor and 7.94 µM on 5HT-Transporter.

With `C/C(=C\c1ccccc1)CN1CCC(Nc2nccn(CC(=O)NCc3ccc(F)cc3)c2=O)CC1` [1-55], the IC50 was 0.0631 µM on hα2A receptor, 0.00126 µM on hα2C receptor and 0.316 µM on 5HT-Transporter.

In the case of `C/C(=C\c1ccccc1)CN1CCC(Nc2nccn(Cc3ccncc3)c2=O)CC1` [6-14], the results for the IC50 at hα2A receptor, at hα2C receptor and at 5HT-Transporter were 0.158 µM, 0.0398 µM and 2.51 µM, respectively.

With `O=c1c(NC2CCN(C/C=C/c3ccccc3)CC2)nccn1Cc1cccc(Br)c1` [16-16], the figures for the IC50 on hα2A receptor, at hα2C receptor and at 5HT-Transporter were 0.501 µM, 0.2 µM and 1 µM, respectively.

Regarding `COc1ccc(Cn2c(-c3cccc(Br)c3)c(Cl)nc(NC3CCN(C/C(C)=C/c4ccccc4)CC3)c2=O)cc1` [17-2], the figures for the IC50 at hα2A receptor, on hα2C receptor and on 5HT-Transporter were 0.794 µM, 0.501 µM and 1.58 µM, respectively.

With `O=c1c(NC2CCN(C/C=C/c3ccccc3)CC2)nccn1Cc1ccncc1` [16-20], the figures for the IC50 at hα2A receptor, on hα2C receptor and on 5HT-Transporter were 2 µM, 0.251 µM and greater than 10 µM, respectively.

In the case of `C/C(=C\c1ccccc1)CN1CCC(Nc2nccn(-c3cccc(NC(=O)c4cccc(F)c4)c3)c2=O)CC1` [1-76], the IC50 at hα2A receptor was 0.02 µM; on hα2C receptor, 0.0316 µM; on 5HT-Transporter it was 0.126 µM.

Take `CCOC(=O)CCCCn1ccnc(NC2CCN(C/C=C/c3ccccc3)CC2)c1=O` [16-11]: the figures for the IC50 on hα2A receptor, at hα2C receptor and on 5HT-Transporter were 0.794 µM, 0.158 µM and 0.631 µM, respectively.

Turning to `C/C(=C\c1ccccc1)CN1CCC(Nc2nccn(CC(=O)C(C)(C)C)c2=O)CC1` [7-8], the values for the IC50 on hα2A receptor, on hα2C receptor and on 5HT-Transporter were 0.126 µM, 0.0126 µM and greater than 10 µM, respectively.

Consider `C/C(=C\c1ccccc1)CN1CCC(Nc2nccn(Cc3ccc4ccccc4n3)c2=O)CC1` [6-17], for which the IC50 was 0.0794 µM at hα2A receptor, 0.0158 µM on hα2C receptor and 0.316 µM at 5HT-Transporter.

As for `C/C(=C\c1ccccc1)CN1CCC(Nc2nccn(CC(=O)NCCCN(C)C)c2=O)CC1` [1-107], the IC50 on hα2A receptor is 0.0316 µM; at hα2C receptor, 0.00158 µM; on 5HT-Transporter, 2 µM.

`C/C(=C\c1ccccc1)CN1CCC(Nc2nccn(-c3ccc(C(=O)N4CCC(C)CC4)cc3)c2=O)CC1` [2-11]: the IC50 on hα2A receptor was 0.0631 µM; at hα2C receptor it was 0.00631 µM; at 5HT-Transporter it was 0.501 µM.

Consider `C/C(=C\c1ccccc1)CN1CCC(Nc2nccn(CC(=O)NCCc3ccccc3)c2=O)CC1` [1-57], for which the IC50 on hα2A receptor is 0.126 µM; at hα2C receptor, 0.00398 µM; at 5HT-Transporter, 3.16 µM.

As to `COC(=O)CCNCc1cccc(-n2ccnc(NC3CCN(C/C(C)=C/c4ccccc4)CC3)c2=O)c1` [1-95], the “h-α2A pIC50” value at hα2A receptor is given as 7.6. At hα2C receptor, the “h-α2C pIC50” value is given as 8.9. For the same compound, the “h-5HTT pIC50” value on 5HT-Transporter amounted to 5.9.

For `C/C(=C\c1ccccc1)CN1CCC(Nc2nccn(-c3cccc(N4CCN(c5ccccc5)CC4)c3)c2=O)CC1` [2-27], the IC50 was 0.0316 µM at hα2A receptor, 0.02 µM at hα2C receptor and 0.2 µM at 5HT-Transporter.

As for `C/C(=C\c1ccccc1)CN1CCN(c2nccn(CCN3CCOCC3)c2=O)CC1` [9-2], the IC50 at hα2A receptor is 1 µM; at hα2C receptor, 0.2 µM; at 5HT-Transporter it was 7.94 µM.

With `C/C(=C\c1ccccc1)CN1CCC(Nc2nccn(Cc3ccccc3Cl)c2=O)CC1` [5-17], the IC50 was 0.0631 µM on hα2A receptor, 0.02 µM at hα2C receptor and 0.251 µM on 5HT-Transporter.

On to `C/C(=C\c1ccccc1)CN1CCC(Nc2nccn(Cc3ccco3)c2=O)CC1` [6-2], for which the IC50 at hα2A receptor was 0.126 µM; on hα2C receptor, 0.0251 µM; on 5HT-Transporter, 1.26 µM.

Turning to `C/C(=C\c1ccccc1)CN1CCC(Nc2nccn(-c3ccc(NC(=O)Cc4ccccc4)cc3)c2=O)CC1` [1-81], the IC50 at hα2A receptor was 0.2 µM; at hα2C receptor it was 0.0251 µM; on 5HT-Transporter it was 0.2 µM.

For the compound `C/C(=C\c1ccccc1)CN1CCC(Nc2nccn(-c3ccc(C(=O)O)cc3)c2=O)CC1` [3-4], the figures for the IC50 at hα2A receptor, at hα2C receptor and at 5HT-Transporter were 0.631 µM, 0.0794 µM and greater than 10 µM, respectively.

On to `CCCCS(=O)(=O)NCc1ccc(Cn2ccnc(NC3CCN(C/C(C)=C/c4ccccc4)CC3)c2=O)cc1` [1-157], for which the IC50 is 0.251 µM at hα2A receptor, 0.0501 µM at hα2C receptor and 1 µM on 5HT-Transporter.

On to `C/C(=C\c1ccccc1)CN1CCC(Nc2nccn(CC(=O)N3CCC(N4CCCC4)CC3)c2=O)CC1` [2-17], for which the IC50 on hα2A receptor was 0.0251 µM; on hα2C receptor, 0.00158 µM; at 5HT-Transporter, 2 µM.

With `CN(C)CCn1ccnc(NC2CCN(C/C=C/c3ccccc3)CC2)c1=O` [16-1], the figures for the IC50 at hα2A receptor, at hα2C receptor and at 5HT-Transporter were 1.58 µM, 0.158 µM and greater than 10 µM, respectively.

For `COCCN(C)C(=O)c1ccc(-n2ccnc(NC3CCN(C/C(C)=C/c4ccccc4)CC3)c2=O)cc1` [1-27], the IC50 was 0.0316 µM on hα2A receptor, 0.00251 µM at hα2C receptor and 0.501 µM at 5HT-Transporter.

In the case of `C/C(=C\c1ccccc1)CN1CCC(Nc2nccn(CC(=O)NCCCN3CCCC3=O)c2=O)CC1` [1-132], the IC50 at hα2A receptor is 0.316 µM; on hα2C receptor it was 0.0126 µM; at 5HT-Transporter it was 2.51 µM.

Consider `C/C(=C\c1ccccc1)CN1CCC(Nc2nccn(-c3ccc(C(=O)N4CCN(c5ncccn5)CC4)cc3)c2=O)CC1` [2-34], for which the IC50 at hα2A receptor was 0.1 µM; on hα2C receptor it was 0.00501 µM; at 5HT-Transporter it was 0.631 µM.

`CCCC(=O)NCCCn1ccnc(NC2CCN(C/C(C)=C/c3ccccc3)CC2)c1=O` [1-32]: the IC50 was 0.2 µM at hα2A receptor, 0.0126 µM at hα2C receptor and 2.51 µM on 5HT-Transporter.

Regarding `CCOC(=O)N1CCN(Cc2ccc(-n3ccnc(NC4CCN(C/C(C)=C/c5ccccc5)CC4)c3=O)cc2)CC1` [2-37], the IC50 was 0.398 µM at hα2A receptor, 0.0316 µM at hα2C receptor and 6.31 µM at 5HT-Transporter.

As for `CCCC(=O)NCc1ccc(Cn2ccnc(NC3CCN(C/C(C)=C/c4ccccc4)CC3)c2=O)cc1` [1-31], the IC50 was 0.2 µM at hα2A receptor, 0.0501 µM on hα2C receptor and 0.794 µM at 5HT-Transporter.

In the case of `C/C(=C\c1ccccc1)CN1CCC(Nc2nccn(CC(=O)O)c2=O)CC1` [3-1], on hα2A receptor, the “h-α2A pIC50” value was 6.6. In addition, at hα2C receptor, the “h-α2C pIC50” value stood at 7.4. Moreover, the “h-5HTT pIC50” value on 5HT-Transporter is less than 5.

For the compound `COCCOCCn1ccnc(N(C)C2CCN(C/C(C)=C/c3ccccc3)CC2)c1=O` [15-5], the IC50 is 0.126 µM at hα2A receptor, 0.0398 µM at hα2C receptor and 2 µM at 5HT-Transporter.

`C/C(=C\c1ccccc1)CN1CCC(Nc2nccn(Cc3ccc(C)cc3)c2=O)CC1` [5-9]: the values for the IC50 at hα2A receptor, on hα2C receptor and at 5HT-Transporter were 0.158 µM, 0.0501 µM and 1 µM, respectively.

Turning to `C/C(=C\c1ccccc1)CN1CCC(Nc2nccn(-c3ccc(C#N)cc3)c2=O)CC1` [5-3], the IC50 at hα2A receptor is 0.0501 µM; on hα2C receptor, 0.01 µM; on 5HT-Transporter, 1 µM.

`C/C(=C\c1ccccc1)CN1CCC(Nc2nccn(CCCN(C)C)c2=O)CC1` [1-15]: the IC50 at hα2A receptor was 0.0501 µM; on hα2C receptor, 0.00398 µM; on 5HT-Transporter it was 7.94 µM.
